The text below walks through data of publication PMC9604662, “New Ceramides and Cerebrosides from the Deep-Sea Far Eastern Starfish Ceramaster patagonicus” (Marine Drugs, 2022).

A value given as a limit tells only on which side of the number the result lay.

Broadly, the inhibition is the relative decrease from the control value, in per cent.

Series [1] concerns human normal embryonic kidney cells HEK293. Put plainly: MTS cell viability assay, HEK293. Type of series: cell-based. Conditions: 24 h exposure, mean ± SD, read-out: Half Maximal Inhibitory Concentration (IC50) HEK293. As to the method:
(§1) In the present study, the cytotoxic activity of compounds 1–3, 5–7, and 9 against human normal embryonic kidney cells HEK293 and a panel of human cancer cells HT-29, SK-MEL-28, and MDA-MB-231 was measured by the MTS assay after 24 h of exposure. Different concentrations of doxorubicin (10, 50, and 100 µM), used as a positive control, and compounds 1–3, 5–7, and 9 (1, 10, and 50 µM) were studied.
(§2) The human embryonic kidney cells HEK293 (ATCC® CRL-1573™), the colorectal adenocarcinoma cell line HT-29 (ATCC® HTB-38), the melanoma SK-MEL-28 (ATCC® HTB-72™), and breast adenocarcinoma MDA-MB-231 (ATCC® HTB-26™) cell lines were obtained from the American Type Culture Collection (Manassas, VA, USA).
(§3) HT 29 cells were cultured in McCoy’s 5A medium; HEK293, SK-MEL-28, and MDA-MB-231 cell lines were maintained in the DMEM medium. The culture media were supplemented with 10% FBS and a 1% penicillin/streptomycin solution. The cell cultures were maintained at 37 °C in a humidified atmosphere containing 5% CO2.
(§4) Compounds 1–3, 5–7, and 9 were dissolved in a sterile dimethyl sulfoxide solution (DMSO) to prepare stock concentrations of 20 mM. Cells were exposed to serially diluted 1–3, 5–7, and 9 (1–100 µM) (with the culture medium used as a diluent) (the final concentration of DMSO was less than 0.5%).
(§5) Doxorubicin (Doxo) (Teva Pharmaceutical Industries, Ltd. (Israel)) was dissolved in sterile PBS to prepare stock concentrations of 10 mM. Cells were exposed to serially diluted Doxo (10–100 µM) (with the culture medium used as a diluent).
(§6) The effect of compounds 1–3, 5–7, and 9 on the viability of tested cell lines was evaluated by the MTS assay. HEK293 (1.0 × 10^4/200 µL), HT-29 (1.0 × 10^4/200 µL), SK-MEL-28 (0.8 × 10^4/200 µL), and MDA-MB-231 (1.0 × 10^4/200 µL) cells were seeded on a 96-well plate and incubated for 24 h at 37°C in a CO2 incubator. The cells were exposed to either DMSO (vehicle control) or Doxo at concentrations of […] (positive control) or 1–3, 5–7, and 9 at concentrations of 1, 10, and 50 µM for 24 h. The cells were subsequently incubated with 15 µL MTS reagent for 3 h, and the absorbance of each well was measured at 490/630 nm on a Power Wave XS microplate reader (BioTek, Winooski, VT, USA). The concentration at which a compound exerted half of its maximal inhibitory effect on cell viability (IC50) was calculated using the AAT-Bioquest® online calculator [27].

Series [2] relates to colorectal adenocarcinoma cell line HT-29. Put plainly: MTS cell viability assay, HT-29. Format: cell-based. The following applies: Homo sapiens, 24 h exposure, mean ± SD, read-out: Half Maximal Inhibitory Concentration (IC50) HT-29. As to the method:
as §1, §2, §3, §4, §5, §6
Background: Formazan colour is commonly taken as a measure of viable cells.

In the next series the test system is melanoma SK-MEL-28 cells. As to the kind of experiment: MTS cell viability assay, SK-MEL-28. Format: cell-based. The following applies: Homo sapiens, 24 h exposure, mean ± SD, read-out: Half Maximal Inhibitory Concentration (IC50) SK-MEL-28. As to the method:
as §1, §2, §3, §4, §5, §6

In series [3] the test system is breast adenocarcinoma MDA-MB-231 cells. As to the kind of experiment: MTS cell viability assay, MDA-MB-231. Format: cell-based, human. Conditions: for IC50: Homo sapiens, MDA-MB-231, MTS assay, 24 h exposure, mean ± SD, read-out: Half Maximal Inhibitory Concentration (IC50) MDA-MB-231; for cytotoxic activity against MDA-MB-231 cells (in words): concentrations of up to 50 µM, MTS, 24 h. As to the method: as §1, §2, §3, §4, §5, §6

The subject of series [4] is human breast cancer cells MDA-MB-231. Put plainly: Soft agar colony formation assay. Type of series: cell-based. The following applies: MDA-MB-231, 336 h, 14 days of incubation, read-out: inhibition of colony formation (decrease in number of colonies) of MDA-MB-231 cells. From the text: Since compounds 1–3, 5–7, and 9 inhibited the viability of breast cancer cells MDA-MB-231, we then tested their ability to inhibit colony formation of MDA-MB-231 cells using the soft agar assay. The colony formation assay, also referred to as soft agar assay, allows for screening the therapeutic efficacy of compounds for anchorage-independent cell growth, which is one of the hallmark characteristics of cellular transformation and uncontrolled growth of cancer cells.
Figure 4 The effect of compounds 1–3, 5–7, and 9 on colony formation of human breast cancer cells MDA-MB-231 (2.4 × 10^4) that were exposed to PBS (control), Doxo (5, 10, and 20 µM), or the compounds under study (5, 10, and 20 µM) and placed on dishes with 0.3% Basal Medium Eagle (BME) agar containing 10% fetal bovine serum FBS, 2 mM L-glutamine, and 25 µg/mL gentamicin. After 14 days of incubation, the number of colonies was counted under a microscope using the ImageJ software program.
MDA-MB-231 cells (2.4 × 10^4/mL) were exposed to either DMSO (vehicle control) or Doxo (positive control) at concentrations of 5, 10, and 20 µM, and to 1–3, 5–7, and 9 at concentrations of 5, 10, 20 µM. Then, the cells were applied on dishes with 0.3% BME agar containing 10% FBS, 2 mM L-glutamine, and 25 µg/mL gentamicin. The cultures were maintained at 37°C in a 5% CO2 incubator for 14 days. The number and size of the colonies were estimated under a Motic microscope AE 20 and using the ImageJ software bundled with 64-bit Java 1.8.0_112 (NIH, Bethesda, Maryland, USA).

Series [5] relates to murine leukemic cells L1210. Also on record: method as in doi:10.1021/jo00080a023, PMID 12192142. Conditions: at a concentration of 2 μM; ref [21],[28]; cited from earlier work.
The subject of series [6] is a number of human cancer cell lines. Also on record: method as in doi:10.1021/jo00080a023, PMID 12192142. The following applies: at concentrations of 15–34 μM; ref [21],[28]; cited from earlier work.

Turning to `COc1cccc2c1C(=O)c1c(O)c3c(c(O)c1C2=O)C[C@@](O)(C(=O)CO)C[C@@H]3O[C@H]1C[C@H](N)[C@H](O)[C@H](C)O1` [Doxorubicin, reference compound], the IC50 in series [1] is 35.7 ± 1.2 µM; in series [2] it was 21.8 ± 3.2 µM; in the series with melanoma SK-MEL-28 cells it was 40 ± 5 µM; in series [3], 22.3 ± 0.2 µM. Moreover, the inhibition at 20 µM in series [4] amounted to 70%.

`CCCCCCCCCCCCCCCCCCCC[C@@H](O)C(=O)N[C@@H](CO[C@@H]1O[C@H](CO)[C@@H](O)[C@H](O)[C@H]1O)[C@H](O)[C@H](O)CCCCCCCCCC(C)CC` (some centres unmarked) [Compound 7, CE-3-2]: the IC50 (in series [1]; in series [2]; with melanoma SK-MEL-28 cells; in series [3]) was > 50 µM in each case. Also, the “cytotoxic activity against MDA-MB-231 cells (in words)” value in series [3] is on record as “slight cytotoxic activity”. For the same compound, in series [4], the inhibition at 20 µM was determined as 44%.

For the compound `CCCCCCCCCCCCCC[C@@H](O)C(=O)N[C@@H](CO)[C@H](O)[C@H](O)CCCC/C=C\CCCCCCCCCCC(C)C` [Compound 2, (2S,3S,4R,9Z)-2-[(2R)-2-hydroxyhexadecanoylamino]-21-methyl-9-docosen-1,3,4-triol], the IC50 in series [1] is > 50 µM; in series [2] it was > 50 µM; in the series with melanoma SK-MEL-28 cells it was > 50 µM; in series [3], 48.7 ± 2.4 µM. Moreover, the inhibition at 20 µM in series [4] was found to be 68%.

On to `CCCCCCCCCCCCCCCCCCCCCC[C@@H](O)C(=O)N[C@@H](CO[C@@H]1O[C@H](CO)[C@@H](O)[C@H](O)[C@H]1O)[C@H](O)[C@H](O)CCCCCCCCCC(C)CC` (stereo partly drawn) [Compound 9, (2S,3S,4R)-1-O-(β-D-glucopyranosyl)-2-[(2R)-2-hydroxytetracosanoylamino]-14-methylhexadecan-3,4-diol], for which the IC50 (in series [1]; in series [2]; with melanoma SK-MEL-28 cells; in series [3]) was > 50 µM in each case. Moreover, the “cytotoxic activity against MDA-MB-231 cells (in words)” value in series [3] was “slight cytotoxic activity”. In addition, the inhibition at 20 µM in series [4] is 50%.

On to `CCCCCCCCCCCCCCC[C@@H](O)C(=O)N[C@@H](CO)[C@H](O)[C@H](O)CCCC/C=C\CCCCCCCCCCC(C)C` [Compound 3, (2S,3S,4R,9Z)-2-[(2R)-2-hydroxyheptadecanoylamino]-21-methyl-9-docosen-1,3,4-triol], for which the IC50 is > 50 µM in series [1], > 50 µM in series [2], > 50 µM with melanoma SK-MEL-28 cells and 49.4 ± 1.6 µM in series [3]. Also, the inhibition at 20 µM in series [4] came to 48%.

In the case of `CCCCCCCCCCCCCC[C@@H](O)C(=O)N[C@@H](CO)[C@H](O)[C@H](O)CCCC/C=C\CCCCCCCCC(C)C` [Compound 1, (2S,3S,4R,9Z)-2-[(2R)-2-hydroxyhexadecanoylamino]-19-methyl-9-icosen-1,3,4-triol], the IC50 (in series [1]; in series [2]; in the series with melanoma SK-MEL-28 cells; in series [3]) was > 50 µM throughout. Moreover, the “cytotoxic activity against MDA-MB-231 cells (in words)” value in series [3] is reported as “slight cytotoxic activity”. Also, in series [4], the inhibition at 20 µM is 46%.

As to `CCCCCCC/C=C/C(C)=C/CC/C=C/[C@@H](O)[C@H](CO[C@@H]1O[C@H](CO)[C@@H](O)[C@H](O)[C@H]1O)NC(=O)[C@H](O)CCCCCCCCCCCCCCCCCCCC` [Compound 5, ophidiacerebroside C], the IC50 in series [1] is > 50 µM; in series [2] it was > 50 µM; in the series with melanoma SK-MEL-28 cells, > 50 µM; in series [3], 48.7 ± 1.8 µM. The inhibition at 20 µM in series [4] was 54%. In addition, the “cytotoxic activity against murine leukemic cells L1210 (in words)” value in series [5] is listed as “strong cytotoxic activity”. Also, the “cytotoxic activity against a number of human cancer cell lines (in words)” value in series [6] is “moderate cytotoxic activity”.

As for `CCCCCCC/C=C/C(C)=C/CC/C=C/[C@@H](O)[C@H](CO[C@@H]1O[C@H](CO)[C@@H](O)[C@H](O)[C@H]1O)NC(=O)[C@H](O)CCCCCCCCCCCCCCCCCCCCC` [Compound 6, ophidiacerebroside D], the IC50 in series [1] was > 50 µM; in series [2], > 50 µM; in the series on melanoma SK-MEL-28 cells, > 50 µM; in series [3], 40.5 ± 0.5 µM. Besides, the inhibition at 20 µM in series [4] is 68%. Further, in series [5], the “cytotoxic activity against murine leukemic cells L1210 (in words)” value is on record as “strong cytotoxic activity”. Moreover, the “cytotoxic activity against a number of human cancer cell lines (in words)” value in series [6] is on record as “moderate cytotoxic activity”.
